Assay results published in ChEMBL document CHEMBL1201862, “PubChem BioAssay data set” (2004).
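Tested at 5 concentrations; 48 h exposure; 96-well plates; endpoints linearly interpolated, else capped at highest concentration. GI50 is the concentration that inhibits growth by half.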 Calls of active or inactive are those of the source. Cut-off read from the data, not from the text of the source: active = GI50 up to about 1.1 µM and inactive = higher.

Assays:
Test in all cases: NCI-60 cell line screen, 48 h
Malme-3M = system: Malme-3M
OVCAR-3 = system: OVCAR-3
T47D = system: T47D
RPMI-8226 = system: RPMI-8226
SR = system: SR
MDA-N = system: MDA-N
K562 = system: K562
Hs-578T = system: Hs-578T
MCF7 = system: MCF7
CAKI-1 = system: CAKI-1
HOP-92 = system: HOP-92
CCRF-CEM = system: CCRF-CEM
OVCAR-5 = system: OVCAR-5
HOP-62 = system: HOP-62
M14 = system: M14
UACC-62 = system: UACC-62
LOX IMVI = system: LOX IMVI
BT-549 = system: BT-549
UO-31 = system: UO-31
TK-10 = system: TK-10
NCI-H522 = system: NCI-H522
EKVX = system: EKVX
COLO 205 = system: COLO 205
MDA-MB-231 = system: MDA-MB-231
U-251 = system: U-251
SK-MEL-28 = system: SK-MEL-28
OVCAR-8 = system: OVCAR-8
SW-620 = system: SW-620
SK-OV-3 = system: SK-OV-3
MDA-MB-435 = system: MDA-MB-435
A498 = system: A498
SK-MEL-2 = system: SK-MEL-2
DU-145 = system: DU-145
OVCAR-4 = system: OVCAR-4
NCI-H226 = system: NCI-H226
PC-3 = system: PC-3
SNB-75 = system: SNB-75
SF-539 = system: SF-539
SN12C = system: SN12C
KM12 = system: KM12
SNB-19 = system: SNB-19
NCI-H23 = system: NCI-H23
SK-MEL-5 = system: SK-MEL-5
A549 = system: A549
ACHN = system: ACHN
786-0 = system: 786-0
HT-29 = system: HT-29
SF-268 = system: SF-268
HCT-15 = system: HCT-15
UACC-257 = system: UACC-257
HCT-116 = system: HCT-116
NCI/ADR-RES = system: NCI/ADR-RES
RXF 393 = system: RXF 393
MOLT-4 = system: MOLT-4
SF-295 = system: SF-295
NCI-H460 = system: NCI-H460
HL-60 = system: HL-60
IGROV-1 = system: IGROV-1
HCC 2998 = system: HCC 2998

## O=C(O)CCNc1ccccc1C(=O)O
Malme-3M
  GI50: > 100 µM (inactive)
OVCAR-3
  GI50: > 100 µM (inactive)
T47D
  GI50: > 100 µM (inactive)
RPMI-8226
  GI50: > 100 µM (inactive)
SR
  GI50: > 100 µM (inactive)
MDA-N
  GI50: > 100 µM (inactive)
K562
  GI50: > 100 µM (inactive)
Hs-578T
  GI50: > 100 µM (inactive)
MCF7
  GI50: > 100 µM (inactive)
CAKI-1
  GI50: > 100 µM (inactive)
HOP-92
  GI50: > 100 µM (inactive)
CCRF-CEM
  GI50: > 100 µM (inactive)
OVCAR-5
  GI50: > 100 µM (inactive)
HOP-62
  GI50: > 100 µM (inactive)
M14
  GI50: > 100 µM (inactive)
UACC-62
  GI50: > 100 µM (inactive)
LOX IMVI
  GI50: > 100 µM (inactive)
BT-549
  GI50: > 100 µM (inactive)
UO-31
  GI50: > 100 µM (inactive)
TK-10
  GI50: > 100 µM (inactive)
NCI-H522
  GI50: > 100 µM (inactive)
EKVX
  GI50: 99.1 µM (inactive)
COLO 205
  GI50: > 100 µM (inactive)
MDA-MB-231
  GI50: > 100 µM (inactive)
U-251
  GI50: > 100 µM (inactive)
SK-MEL-28
  GI50: > 100 µM (inactive)
OVCAR-8
  GI50: > 100 µM (inactive)
SW-620
  GI50: > 100 µM (inactive)
SK-OV-3
  GI50: > 100 µM (inactive)
MDA-MB-435
  GI50: > 100 µM (inactive)
A498
  GI50: > 100 µM (inactive)
SK-MEL-2
  GI50: > 100 µM (inactive)
DU-145
  GI50: > 100 µM (inactive)
OVCAR-4
  GI50: > 100 µM (inactive)
NCI-H226
  GI50: > 100 µM (inactive)
PC-3
  GI50: > 100 µM (inactive)
SNB-75
  GI50: > 100 µM (inactive)
SF-539
  GI50: > 100 µM (inactive)
SN12C
  GI50: > 100 µM (inactive)
KM12
  GI50: > 100 µM (inactive)
SNB-19
  GI50: > 100 µM (inactive)
NCI-H23
  GI50: > 100 µM (inactive)
SK-MEL-5
  GI50: > 100 µM (inactive)
A549
  GI50: > 100 µM (inactive)
ACHN
  GI50: > 100 µM (inactive)
786-0
  GI50: > 100 µM (inactive)
HT-29
  GI50: > 100 µM (inactive)
SF-268
  GI50: > 100 µM (inactive)
HCT-15
  GI50: > 100 µM
UACC-257
  GI50: > 100 µM (inactive)
HCT-116
  GI50: > 100 µM (inactive)
NCI/ADR-RES
  GI50: > 100 µM (inactive)
RXF 393
  GI50: > 100 µM (inactive)
MOLT-4
  GI50: > 100 µM (inactive)
SF-295
  GI50: > 100 µM (inactive)
NCI-H460
  GI50: > 100 µM (inactive)
HL-60
  GI50: > 100 µM (inactive)
IGROV-1
  GI50: > 100 µM (inactive)

## CC(=O)N1C(=O)/C(=C\C(=O)c2ccc([N+](=O)[O-])cc2)c2ccccc21
Malme-3M
  GI50: 20.7 µM (inactive)
OVCAR-3
  GI50: 16.7 µM (inactive)
T47D
  GI50: 20.5 µM (inactive)
SR
  GI50: 3.61 µM (inactive)
MDA-N
  GI50: 18.8 µM (inactive)
K562
  GI50: 9.18 µM (inactive)
Hs-578T
  GI50: 22.2 µM (inactive)
MCF7
  GI50: 21.3 µM (inactive)
CAKI-1
  GI50: 22.5 µM (inactive)
CCRF-CEM
  GI50: 3.94 µM (inactive)
OVCAR-5
  GI50: 54.2 µM (inactive)
HOP-62
  GI50: 36.4 µM (inactive)
M14
  GI50: 31 µM (inactive)
UACC-62
  GI50: 18.4 µM (inactive)
BT-549
  GI50: 20.9 µM (inactive)
UO-31
  GI50: 19 µM (inactive)
TK-10
  GI50: 13.1 µM (inactive)
NCI-H522
  GI50: 15.7 µM (inactive)
EKVX
  GI50: 19.6 µM (inactive)
COLO 205
  GI50: 18.8 µM (inactive)
MDA-MB-231
  GI50: 35.3 µM (inactive)
U-251
  GI50: 21.1 µM (inactive)
OVCAR-8
  GI50: 47.5 µM (inactive)
SK-OV-3
  GI50: > 100 µM (inactive)
MDA-MB-435
  GI50: 25.6 µM (inactive)
A498
  GI50: > 100 µM (inactive)
SK-MEL-2
  GI50: > 100 µM (inactive)
DU-145
  GI50: 67 µM (inactive)
OVCAR-4
  GI50: 14.4 µM (inactive)
NCI-H226
  GI50: > 100 µM (inactive)
PC-3
  GI50: 21.8 µM (inactive)
SNB-75
  GI50: 21.9 µM (inactive)
SF-539
  GI50: 14.4 µM (inactive)
SN12C
  GI50: 16.8 µM (inactive)
KM12
  GI50: 19.6 µM (inactive)
SNB-19
  GI50: 43.2 µM (inactive)
NCI-H23
  GI50: 28.9 µM (inactive)
SK-MEL-5
  GI50: 35 µM (inactive)
A549
  GI50: > 100 µM (inactive)
ACHN
  GI50: 15.3 µM (inactive)
786-0
  GI50: 15.5 µM (inactive)
HT-29
  GI50: 17.8 µM (inactive)
SF-268
  GI50: 22.6 µM (inactive)
HCT-15
  GI50: 15 µM
UACC-257
  GI50: 19 µM (inactive)
HCT-116
  GI50: 18 µM (inactive)
NCI/ADR-RES
  GI50: 44.4 µM (inactive)
RXF 393
  GI50: 29.1 µM (inactive)
MOLT-4
  GI50: 19.5 µM (inactive)
SF-295
  GI50: > 100 µM (inactive)
NCI-H460
  GI50: 20.1 µM (inactive)
HCC 2998
  GI50: 19.3 µM (inactive)
IGROV-1
  GI50: 21.4 µM (inactive)

## COc1ccc(C(=O)/C=C2\c3ccccc3C(=O)N2C)cc1
Malme-3M
  GI50: 31.7 µM (inactive)
OVCAR-3
  GI50: 98.2 µM (inactive)
T47D
  GI50: 27 µM (inactive)
RPMI-8226
  GI50: 41.5 µM (inactive)
SR
  GI50: 33.5 µM (inactive)
MDA-N
  GI50: 41.4 µM (inactive)
K562
  GI50: 44.1 µM (inactive)
Hs-578T
  GI50: 90.6 µM (inactive)
MCF7
  GI50: 21 µM (inactive)
CAKI-1
  GI50: 36.4 µM (inactive)
HOP-92
  GI50: 24.5 µM (inactive)
CCRF-CEM
  GI50: 44.8 µM (inactive)
OVCAR-5
  GI50: > 100 µM (inactive)
HOP-62
  GI50: 60.4 µM (inactive)
M14
  GI50: 48.6 µM (inactive)
UACC-62
  GI50: 41.1 µM (inactive)
LOX IMVI
  GI50: 46.8 µM (inactive)
BT-549
  GI50: 68.1 µM (inactive)
UO-31
  GI50: 44.3 µM (inactive)
TK-10
  GI50: 31.2 µM (inactive)
NCI-H522
  GI50: 31.9 µM (inactive)
EKVX
  GI50: 26.8 µM (inactive)
COLO 205
  GI50: 55 µM (inactive)
MDA-MB-231
  GI50: > 100 µM (inactive)
U-251
  GI50: 74.8 µM (inactive)
SK-MEL-28
  GI50: > 100 µM (inactive)
OVCAR-8
  GI50: 64.4 µM (inactive)
SW-620
  GI50: > 100 µM (inactive)
SK-OV-3
  GI50: 74.8 µM (inactive)
MDA-MB-435
  GI50: 36.9 µM (inactive)
A498
  GI50: 69 µM (inactive)
SK-MEL-2
  GI50: > 100 µM (inactive)
DU-145
  GI50: > 100 µM (inactive)
OVCAR-4
  GI50: 42.6 µM (inactive)
PC-3
  GI50: 89.1 µM (inactive)
SNB-75
  GI50: 22.8 µM (inactive)
SF-539
  GI50: 64 µM (inactive)
SN12C
  GI50: 58.5 µM (inactive)
KM12
  GI50: 62.8 µM (inactive)
SNB-19
  GI50: > 100 µM (inactive)
NCI-H23
  GI50: 55.3 µM (inactive)
SK-MEL-5
  GI50: 63.4 µM (inactive)
A549
  GI50: 58.6 µM (inactive)
ACHN
  GI50: 89.5 µM (inactive)
786-0
  GI50: 92.3 µM (inactive)
HT-29
  GI50: 35.6 µM (inactive)
SF-268
  GI50: 61.2 µM (inactive)
HCT-15
  GI50: 36.4 µM
UACC-257
  GI50: 31.3 µM (inactive)
HCT-116
  GI50: 59.3 µM (inactive)
NCI/ADR-RES
  GI50: 38 µM (inactive)
RXF 393
  GI50: 22.9 µM (inactive)
MOLT-4
  GI50: 58.7 µM (inactive)
SF-295
  GI50: 71 µM (inactive)
NCI-H460
  GI50: 36.1 µM (inactive)
IGROV-1
  GI50: 28 µM (inactive)
